Where a name gives a salt, the structure may show the parent alone.
Experiments:
[1] = tested on: BT474 (human breast carcinoma); test: In vitro tumor cell proliferation assay (Cell Titer-Glo luminescent cell viability), BT474; type: cell-based; details: BT-474, 72 h, BT474 cells, 72 hours of drug exposure, ATP luminescence readout, read-out: IC50, anti-proliferative activity (inhibition of cell proliferation)
In short: (§1)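 IC50 values reflect ATP-based luminescence (CellTiter-Glo) after 72 h compound exposure at 37°C. Both lines, A431 and BT474, were plated in RPMI with 10% FBS and received serial dilutions ranging from 100 μM to 64 pM final at 0.1% DMSO.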

[2] = tested on: A431 cells (human epidermoid carcinoma); test: In vitro tumor cell proliferation assay (Cell Titer-Glo luminescent cell viability), A431; type: cell-based; details: A-431, 72 h, 72 hours of drug exposure, ATP luminescence readout, read-out: IC50, anti-proliferative activity (inhibition of cell proliferation)
In short: as §1

Compound	IC50 [1] [µM]	IC50 [2] [µM]
OCC(O)CN1CCC(CCn2cc3c(n2)CCc2c-3sc3ncnc(Nc4ccc(OCc5cccc(F)c5)c(Cl)c4)c23)CC1 (centres unmarked) [Example 257, 3-(4-{2-[6-({3-chloro-4-[(3-fluorobenzyl)oxy]phenyl}amino)-4,5-dihydro-2H-pyrimido[5′,4′:4,5]thieno[2,3-e]indazol-2-yl]ethyl}piperidin-1-yl)propane-1,2-diol]	≤ 1	≤ 5
CCN1CCC(CCn2cc3c(n2)CCc2c-3sc3ncnc(Nc4ccc(OCc5cccc(F)c5)c(Cl)c4)c23)CC1 [Example 254, N-{3-chloro-4-[(3-fluorobenzyl)oxy]phenyl}-2-[2-(1-ethylpiperidin-4-yl)ethyl]-4,5-dihydro-2H-pyrimido[5′,4′:4,5]thieno[2,3-e]indazol-6-amine]	≤ 1	≤ 5
COCCn1cc2c(n1)CCc1c-2sc2ncnc(Nc3ccc(OCc4cccc(F)c4)c(Cl)c3)c12 [Example 312, N-{3-chloro-4-[(3-fluorobenzyl)oxy]phenyl}-2-(2-methoxyethyl)-4,5-dihydro-2H-pyrimido[5′,4′:4,5]thieno[2,3-e]indazol-6-amine]	≤ 5	≤ 50
COCCN(CCOC)C[C@@H](O)Cn1ncc2c1CCc1c-2sc2ncnc(Nc3ccc(OCc4cccc(F)c4)c(Cl)c3)c12 [Example 164, (2R)-1-[bis(2-methoxyethyl)amino]-3-[6-({3-chloro-4-[(3-fluorobenzyl)oxy]phenyl}amino)-4,5-dihydro-3H-pyrimido[5′,4′:4,5]thieno[2,3-e]indazol-3-yl]propan-2-ol trifluoroacetate (salt)]	≤ 5	≤ 50
CN1CCN(CCn2cc3c(n2)CCc2c-3sc3ncnc(Nc4ccc5nn(Cc6cccc(F)c6)cc5c4)c23)CC1 [Example 327, N-[2-(3-fluorobenzyl)-2H-indazol-5-yl]-2-[2-(4-methylpiperazin-1-yl)ethyl]-4,5-dihydro-2H-pyrimido[5′,4′:4,5]thieno[2,3-e]indazol-6-amine]	≤ 5	≤ 5
Cc1cc(Nc2ncnc3sc4c(c23)CCc2c-4cnn2CCN2CCN(C)CC2)ccc1O [Example 316, 2-methyl-4-({3-[2-(4-methylpiperazin-1-yl)ethyl]-4,5-dihydro-3H-pyrimido[5′,4′:4,5]thieno[2,3-e]indazol-6-yl}amino)phenol]	≤ 50	≤ 50
OCCn1ncc2c1CCc1c-2sc2ncnc(Nc3ccc(OCc4cccc(F)c4)c(Cl)c3)c12 [Example 80, 2-[6-({3-chloro-4-[(3-fluorobenzyl)oxy]phenyl}amino)-4,5-dihydro-3H-pyrimido[5′,4′:4,5]thieno[2,3-e]indazol-3-yl]ethanol]	≤ 1	≤ 5
OCCn1ncc2c1CCc1c-2sc2ncnc(Nc3ccc4c(cnn4Cc4cccc(F)c4)c3)c12 [Example 289, 2-(6-{[1-(3-fluorobenzyl)-1H-indazol-5-yl]amino}-4,5-dihydro-3H-pyrimido[5′,4′:4,5]thieno[2,3-e]indazol-3-yl)ethanol]	≤ 1	≤ 5
Fc1ccc(Nc2ncnc3sc4c(c23)CCc2n[nH]cc2-4)cc1Cl [Example 40, N-(3-chloro-4-fluorophenyl)-4,5-dihydro-2H-pyrimido[5′,4′:4,5]thieno[2,3-e]indazol-6-amine]	≤ 5	≤ 5
OCCNCCn1ncc2c1CCc1c-2sc2ncnc(Nc3ccc4c(cnn4Cc4cccc(F)c4)c3)c12 [Example 300, 2-{[2-(6-{[1-(3-fluorobenzyl)-1H-indazol-5-yl]amino}-4,5-dihydro-3H-pyrimido[5′,4′:4,5]thieno[2,3-e]indazol-3-yl)ethyl]amino}ethanol]	≤ 1	≤ 5
CCCN1CCC(Cn2cc3c(n2)CCc2c-3sc3ncnc(Nc4ccc(OCc5cccc(F)c5)c(Cl)c4)c23)CC1 [Example 243, N-{3-chloro-4-[(3-fluorobenzyl)oxy]phenyl}-2-[(1-propylpiperidin-4-yl)methyl]-4,5-dihydro-2H-pyrimido[5′,4′:4,5]thieno[2,3-e]indazol-6-amine]	≤ 1	≤ 5
O=C(Cn1ncc2c1CCc1c-2sc2ncnc(Nc3ccc(OCc4cccc(F)c4)c(Cl)c3)c12)NCCO [Example 209, 2-[6-({3-chloro-4-[(3-fluorobenzyl)oxy]phenyl}amino)-4,5-dihydro-3H-pyrimido[5′,4′:4,5]thieno[2,3-e]indazol-3-yl]-N-(2-hydroxyethyl]acetamide]	≤ 1	≤ 50
Fc1cccc(Cn2ncc3cc(Nc4ncnc5sc6c(c45)CCc4c-6cnn4CCN4CCOCC4)ccc32)c1 [Example 296, N-[1-(3-fluorobenzyl)-1H-indazol-5-yl]-3-(2-morpholin-4-ylethyl)-4,5-dihydro-3H-pyrimido[5′,4′:4,5]thieno[2,3-e]indazol-6-amine]	≤ 1	≤ 5

The next lines start with the values.

IC50 [1] [µM]	IC50 [2] [µM]	Compound
≤ 1	≤ 5	CN(C)C1CCN(CCn2ncc3c2CCc2c-3sc3ncnc(Nc4ccc(OCc5cccc(F)c5)c(Cl)c4)c23)C1 (centres unmarked) [Example 267, N-{3-chloro-4-[(3-fluorobenzyl)oxy]phenyl}-3-{2-[3-(dimethylamino)pyrrolidin-1-yl]ethyl}-4,5-dihydro-3H-pyrimido[5′,4′:4,5]thieno[2,3-e]indazol-6-amine trifluoroacetate]
≤ 1	≤ 5	Fc1cccc(Cn2ncc3cc(Nc4ncnc5sc6c(c45)CCc4c-6cnn4CCN4CCNCC4)ccc32)c1 [Example 298, N-[1-(3-fluorobenzyl)-1H-indazol-5-yl]-3-(2-piperazin-1-ylethyl)-4,5-dihydro-3H-pyrimido[5′,4′:4,5]thieno[2,3-e]indazol-6-amine]
≤ 5	≤ 5	Cc1cccc(COc2ccc(Nc3ncnc4sc5c(c34)CCc3c-5cnn3CCN3CCN(C)CC3)cc2Cl)c1 [Example 320, N-{3-chloro-4-[(3-methylbenzyl)oxy]phenyl}-3-(2-(4-methylpiperazin-1-yl)ethyl]-4,5-dihydro-3H-pyrimido[5′,4′:4,5]thieno[2,3-e]indazol-6-amine trifluoroacetate]
≤ 1	≤ 5	COCCN(CCOC)CCn1ncc2c1CCc1c-2sc2ncnc(Nc3ccc4c(cnn4Cc4cccc(F)c4)c3)c12 [Example 292, 3-{2-[bis(2-methoxyethyl)amino]ethyl}-N-[1-(3-fluorobenzyl)-1H-indazol-5-yl]-4,5-dihydro-3H-pyrimido[5′,4′:4,5]thieno[2,3-e]indazol-6-amine]
≤ 5	≤ 5	Fc1ccc(Nc2ncnc3sc4c(c23)CCc2nn(CCn3ccnc3)cc2-4)cc1Cl [Example 12, N-(3-chloro-4-fluorophenyl)-2-[2-(1H-imidazol-1-yl)ethyl]-4,5-dihydro-2H-pyrimido[5′,4′:4,5]thieno[2,3-e]indazol-6-amine]
≤ 1	≤ 5	O=C(Cn1ncc2c1CCc1c-2sc2ncnc(Nc3ccc(OCc4cccc(F)c4)c(Cl)c3)c12)N1CCC(O)CC1 [Example 213, 1-{[6-({3-chloro-4-[(3-fluorobenzyl)oxy]phenyl}amino)-4,5-dihydro-3H-pyrimido[5′,4′:4,5]thieno[2,3-e]indazol-3-yl]acetyl}piperidin-4-ol]
≤ 1	≤ 50	NS(=O)(=O)OCCn1cc2c(n1)CCc1c-2sc2ncnc(Nc3ccc(OCc4cccc(F)c4)c(Cl)c3)c12 [Example 311, 2-[6-({3-chloro-4-[(3-fluorobenzyl)oxy]phenyl}amino)-4,5-dihydro-2H-pyrimido[5′,4′:4,5]thieno[2,3-e]indazol-2-yl]ethyl sulfamate]
≤ 5	≤ 50	CC(C)NC[C@@H](O)Cn1cc2c(n1)CCc1c-2sc2ncnc(Nc3ccc(OCc4cccc(F)c4)c(Cl)c3)c12 [Example 159, (2R)-1-[6-({3-chloro-4-[(3-fluorobenzyl)oxy]phenyl}amino)-4,5-dihydro-2H-pyrimido[5′,4′:4,5]thieno[2,3-e]indazol-2-yl]-3-(isopropylamino)propan-2-ol trifluoroacetate (salt)]
≤ 1	≤ 5	CN1CCN(CCn2ncc3c2CCc2c-3sc3ncnc(Nc4ccc(OCc5ccc(F)cc5)c(Cl)c4)c23)CC1 [Example 322, N-{3-chloro-4-[(4-fluorobenzyl)oxy]phenyl}-3-[2-(4-methylpiperazin-1-yl)ethyl]-4,5-dihydro-3H-pyrimido[5′,4′:4,5]thieno[2,3-e]indazol-6-amine trifluoroacelate]
≤ 1	≤ 5	CS(=O)(=O)OCCn1ncc2c1CCc1c-2sc2ncnc(Nc3ccc4c(cnn4Cc4cccc(F)c4)c3)c12 [Example 290, 2-(6-{[1-(3-fluorobenzyl)-1H-indazol-5-yl]amino}-4,5-dihydro-3H-pyrimido[5′,4′:4,5]thieno[2,3-e]indazol-3-yl)ethyl methanesulfonate]
≤ 1	≤ 50	CN(C)C[C@@H](O)Cn1ncc2c1CCc1c-2sc2ncnc(Nc3ccc(OCc4cccc(F)c4)c(Cl)c3)c12 [Example 171, (2R)-1-[6-({3-chloro-4-[(3-fluorobenzyl)oxy]phenyl}amino)-4,5-dihydro-3H-pyrimido[5′,4′:4,5]thieno[2,3-e]indazol-3-yl]-3-(dimethylamino)propan-2-ol trifluoroacetate (salt)]
≤ 1	≤ 50	COCCN(CCOC)C[C@@H](O)Cn1cc2c(n1)CCc1c-2sc2ncnc(Nc3ccc(OCc4cccc(F)c4)c(Cl)c3)c12 [Example 138, (2R)-1-[bis(2-methoxyethyl)amino]-3-[6-({3-chloro-4-[(3-fluorobenzyl)oxy]phenyl}amino)-4,5-dihydro-2H-pyrimido[5′,4′:4,5]thieno[2,3-e]indazol-2-yl]propan-2-ol]

Reference: patent US8207172B2 (Bayer Intellectual Property GmbH, priority 2004, dated 2012)
